This is an account of results in article PMC6013238, “Development of novel NEMO-binding domain mimetics for inhibiting IKK/NF-κB activation” (PLoS Biology, 2018).

One experiment concerns JNK/p38MAPK signaling. In words: Western blot of JNK and p38MAPK phosphorylation in Raw 264.7 cells. It counts as cell-based, mouse. Conditions: 150 μM; TNF-α or LPS stimulation. Here is the method:
(§1) To determine whether the novel NBD mimetics target the NEMO-IKKβ interaction in vivo, co-immunoprecipitations were performed using extracts from Raw 264.7 macrophages (Fig 5A). […] No interaction between NEMO and TNF receptor-associated factor 2 (TRAF2) or IκBα was observed under these conditions. […] The levels of phosphorylated IKK complex, IκBα, and p65 in response to TNF-α and LPS were all reduced by SR12343 (Fig 5D & 5E). […] However, there were no changes in the levels of phospho-c-Jun N-terminal kinase (p-JNK), p-p38MAPK, total JNK, and p38MAPK by treatment with SR12343 (150 μM) in response to TNF-α or LPS stimulation (Fig 5G & 5H). […]
(§2) (A) Co-IP analysis detecting the IKKβ/NEMO interaction. […] NEMO-binding products were then analyzed for levels of IKKβ, IKKα, TRAF2, and IκBα (negative control), and levels of NEMO were used as a loading control (left panel). […] The levels of IKKβ-FLAG binding to GST-NEMO were determined by western blot analysis with GST-NEMO used as a loading control. […] Cell lysates were analyzed for activity of the IKK/NF-κB signaling pathway including activation of IKK complex, IκBα, and p65. […] Cell lysates were harvested and analyzed for activation of noncanonical NF-κB signaling, the processing of p100 to p52. […]

The target of the next experiment is T1, GST-NEMO and FLAG-IKKβ (Homo sapiens, UniProt Q9Y6K9).
T1 construct: Recombinant full-length NEMO tagged with GST at the N-terminus; purchased SignalChem (GST-NEMO); Origene (IKKβ-FLAG)
In words: IKKβ-NEMO binding assay (GST pull-down, recombinant proteins). Conditions: at 12.5 μM; 15 nM each protein. Here is the method:
as §1, §2

T1 sequence (Q9Y6K9 whole entry): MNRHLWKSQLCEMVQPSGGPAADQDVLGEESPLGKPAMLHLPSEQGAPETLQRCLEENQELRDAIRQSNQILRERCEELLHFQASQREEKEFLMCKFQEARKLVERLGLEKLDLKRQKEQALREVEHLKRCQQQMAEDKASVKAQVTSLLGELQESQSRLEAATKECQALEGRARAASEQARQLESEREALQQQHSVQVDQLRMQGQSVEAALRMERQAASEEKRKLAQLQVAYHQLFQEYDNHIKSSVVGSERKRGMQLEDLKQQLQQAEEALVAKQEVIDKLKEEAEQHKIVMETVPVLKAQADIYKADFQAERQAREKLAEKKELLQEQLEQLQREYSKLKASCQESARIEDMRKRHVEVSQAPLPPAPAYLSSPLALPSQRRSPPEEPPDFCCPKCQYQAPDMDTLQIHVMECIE

As to `O=C(CNc1ccc(Cl)cn1)NCCc1cccc(Br)c1` [SR12343], the “Levels of p-JNK, p-p38MAPK, total JNK and p38MAPK” value in the experiment on JNK/p38MAPK signaling is reported as “no changes”. Besides, at GST-NEMO and FLAG-IKKβ, the “Disruption of interaction between GST-NEMO and FLAG-IKKβ” value is “able to disrupt”.
